Experimental data: patent publication US20100160349A1, “TRIAZOLOPYRIMIDINE DERIVATIVES AS GLYCOGEN SYNTHASE KINASE 3 INHIBITORS” (priority 2005, published 2010)
Counter-ions that a name gives are not always drawn.

Columns and labels:
GSK3β = GSK3β (Homo sapiens, UniProt P49841); assay: GSK3beta assay (SPA, biotinylated phosphorylated CREB peptide, ATP-P33); format: biochemical; details: −log IC50 (M); reported as ranges; 5.7 ng/μl GSK3β, 1 μM ATP, room temperature, one hour; read-out: pIC50 (GSK3beta) (converted)
Protocol: (§1) GSK3beta assays were performed at room temperature in a 100 μl reaction volume of 25 mM Tris (pH 7.4) containing 10 mM MgCl2.6H2O, 1 mM DTT, 0.1 mg/ml BSA, 5% glycerol and containing 5.7 ng/μl GSK3β, 5 μM biotinylated phosphorylated CREB peptide, 1 μM ATP, 0.85 μCi/ml ATP-P^33 and a suitable amount of a test compound of formula (I). After one hour, the reaction was terminated by adding 70 μl of Stop mix (0.1 mM ATP, 5 mg/ml streptavidin coated PVT SPA bead pH 11.0). The beads to which the phosphorylated CREB peptide is attached were allowed to settle overnight and the radioactivity of the beads was counted in a microtiterplate scintillation counter and compared with the results obtained in a control experiment (without the presence of a test compound) in order to determine the percentage of GSK3β inhibition. The IC50 value, i.e. the concentration (M) of the test compound at which 50% of GSK3β is inhibited, was calculated from the dose response curve obtained by performing the above-described GSK3β assay in the presence of different amounts of the test compound.

GSK3alpha = GSK3alpha (Homo sapiens, UniProt P49840); assay: GSK3alpha assay (same way as the GSK3beta assay); format: biochemical; details: −log IC50 (M); reported as ranges; 0.25 ng/μl GSK3alpha, 1 μM ATP, room temperature, one hour; read-out: pIC50 (GSK3alpha) (converted)
Protocol: as §1
The GSK3alpha assay was performed in the same way as described above for the GSK3beta assay except for the concentration of GSK3alpha which is 0.25 ng/μl.

GSK3β, sequence (P49841 whole entry, species assumed): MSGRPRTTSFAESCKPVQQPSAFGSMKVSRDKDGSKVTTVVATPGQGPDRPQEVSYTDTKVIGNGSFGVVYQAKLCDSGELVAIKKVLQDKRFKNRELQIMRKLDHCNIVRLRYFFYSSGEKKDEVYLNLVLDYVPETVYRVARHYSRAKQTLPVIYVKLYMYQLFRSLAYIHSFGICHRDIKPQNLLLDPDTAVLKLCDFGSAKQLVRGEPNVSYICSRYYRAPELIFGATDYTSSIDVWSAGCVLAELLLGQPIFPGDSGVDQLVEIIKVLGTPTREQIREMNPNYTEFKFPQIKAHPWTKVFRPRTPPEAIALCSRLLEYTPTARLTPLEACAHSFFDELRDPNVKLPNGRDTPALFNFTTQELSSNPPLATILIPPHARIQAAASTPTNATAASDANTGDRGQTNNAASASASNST
GSK3alpha, sequence (P49840 whole entry, species assumed): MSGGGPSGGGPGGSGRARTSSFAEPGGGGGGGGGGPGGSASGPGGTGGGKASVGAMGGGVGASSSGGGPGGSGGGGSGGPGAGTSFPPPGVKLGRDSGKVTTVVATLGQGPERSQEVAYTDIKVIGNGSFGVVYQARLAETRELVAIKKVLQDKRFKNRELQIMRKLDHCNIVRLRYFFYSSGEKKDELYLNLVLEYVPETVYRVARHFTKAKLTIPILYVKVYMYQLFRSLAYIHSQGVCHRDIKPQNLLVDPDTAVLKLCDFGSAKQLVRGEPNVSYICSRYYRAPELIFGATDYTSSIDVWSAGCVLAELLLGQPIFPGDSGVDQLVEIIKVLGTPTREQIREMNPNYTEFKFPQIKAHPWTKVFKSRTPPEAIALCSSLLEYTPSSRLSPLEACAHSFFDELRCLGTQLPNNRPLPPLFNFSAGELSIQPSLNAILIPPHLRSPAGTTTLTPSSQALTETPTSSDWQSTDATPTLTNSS

Compound | melting point [°C] | IC50 (GSK3β) [M] | IC50 (GSK3alpha) [M]
NCc1cccc(-n2nnc3cnc(Nc4ccccc4)nc32)c1 (as salt: HCl) [Co. No. 9] | > 260 | – | –
N#CCc1cccc(-n2nnc3cnc(Nc4ccccc4)nc32)c1 [Co. No. 1] | 218 to 222 | < 1e-08 | < 1e-08
COCCOCc1cccc(-n2nnc3cnc(Nc4ccccc4)nc32)c1 [Co. No. 2] | 143 | < 1e-08 | < 1e-08
COCCOc1cccc(-n2nnc3cnc(Nc4ccccc4)nc32)c1 [Co. No. 3] | 164 | 1e-08 to 1e-07 | < 1e-08
c1ccc(Nc2ncc3nnn(-c4ccccc4)c3n2)cc1 [Co. No. 4] | 194 to 198 | 1e-08 to 1e-07 | 1e-08 to 1e-07
CC(C)(C)OC(=O)NCc1cccc(-n2nnc3cnc(Nc4ccccc4)nc32)c1 [Co. No. 5] | 196 to 198 | < 1e-08 | < 1e-08
O=C(NCc1cccc(-n2nnc3cnc(Nc4ccccc4)nc32)c1)C12CC3CC(CC(C3)C1)C2 [Co. No. 6] | – | > 1e-07 | > 1e-07
CC(C)CC(=O)NCc1cccc(-n2nnc3cnc(Nc4ccccc4)nc32)c1 [Co. No. 7] | – | < 1e-08 | < 1e-08
O=C(O)Cc1cccc(-n2nnc3cnc(Nc4ccccc4)nc32)c1 [Co. No. 8] | 241 | > 1e-07 | 1e-08 to 1e-07
NCc1cccc(-n2nnc3cnc(Nc4ccccc4)nc32)c1 [Co. No. 9] | – | 1e-08 to 1e-07 | < 1e-08
OCCc1cccc(-n2nnc3cnc(Nc4ccccc4)nc32)c1 [Co. No. 10] | – | < 1e-08 | < 1e-08
COCc1cccc(-n2nnc3cnc(Nc4ccccc4)nc32)c1 [Co. No. 11] | – | < 1e-08 | < 1e-08
CC(=O)NCc1cccc(-n2nnc3cnc(Nc4ccccc4)nc32)c1 [Co. No. 12] | – | ≤ 1e-08 | < 1e-08
Fc1cccc(-n2nnc3cnc(Nc4ccccc4)nc32)c1 [Co. No. 13] | – | – | 1e-08 to 1e-07
O=C(NCc1cccc(-n2nnc3cnc(Nc4ccccc4)nc32)c1)C1CC1 [Co. No. 14] | – | – | > 1e-06
CCOC(=O)NCc1cccc(-n2nnc3cnc(Nc4ccccc4)nc32)c1 [Co. No. 15] | – | < 1e-08 | < 1e-08
OCCc1ccc(-n2nnc3cnc(Nc4ccccc4)nc32)cc1 [Co. No. 16] | – | 1e-08 to 1e-07 | 1e-08 to 1e-07
NC(=O)Cc1cccc(-n2nnc3cnc(Nc4ccccc4)nc32)c1 [Co. No. 17] | – | < 1e-08 | < 1e-08
